{"source": "patent US10975114B2", "about": "“Bis 2′-5′-RR-(3′F-A)(3′F-A) cyclic dinucleotide compound and uses thereof” (ADURO BIOTECH, INC., priority 2017, dated 2021)", "key": {"wild type hSTING": {"target": "T1, wild type hSTING (Homo sapiens, UniProt Q86WV6, H232R)", "T1 construct": "6xHis-SUMO (with TEV site) (N, cleaved yes); made in house; host or cells: Rosetta2 (DE3) E. coli", "T1 sequence (Q86WV6 140-379 H232R)": "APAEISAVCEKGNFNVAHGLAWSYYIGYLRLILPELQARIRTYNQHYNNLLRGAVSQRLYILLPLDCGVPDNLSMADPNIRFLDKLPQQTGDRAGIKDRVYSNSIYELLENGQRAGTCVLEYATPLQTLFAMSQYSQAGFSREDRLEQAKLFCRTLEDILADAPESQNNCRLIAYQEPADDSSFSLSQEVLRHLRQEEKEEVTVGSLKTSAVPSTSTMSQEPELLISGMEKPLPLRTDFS", "experiment": "DSF Tm shift, purified hSTING WT (AA140-379)", "type": "binding", "settings": "1 mg/ml STING AA140-379, ligand 1 mM", "procedure": "(§1) Cells were grown in lysogeny broth at 37° C. until a […] absorbance of 0.6 was reached. […] Cells were lysed using an S-450D sonifier (Emmerson industrial) on ice. […] Protein was aliquoted, flash frozen in liquid nitrogen and stored at −80° C. until use.\n(§2) The protein is heated in the presence of a dye that binds to and fluoresces in hydrophobic environments. The protein is thermally denatured by heating resulting in increased dye binding to the unfolded protein and fluorescence. The temperature midpoint (Tm) of a proteins denaturation is established by calculating the half maximal value of the denaturation curve. The temperature midpoint of the protein in the presence of a ligand is directly related to the affinity of the ligand for the protein and therefore its ability to stabilize the protein at higher temperatures."}, "HAQ allele hSTING": {"target": "T2, HAQ allele hSTING (Homo sapiens, UniProt Q86WV6, G230A/H232R/R293Q)", "T2 construct": "6xHis-SUMO (with TEV site) (N, cleaved yes); made in house; host or cells: Rosetta2 (DE3) E. coli", "T2 sequence (Q86WV6 140-379 G230A/H232R/R293Q)": "as the sequence (Q86WV6 140-379 H232R) above, with G91A, R154Q counted along it", "experiment": "DSF Tm shift, purified hSTING HAQ allele (AA140-379)", "type": "binding", "settings": "1 mg/ml STING AA140-379, ligand 1 mM", "procedure": "as §1, §2"}, "REF allele hSTING": {"target": "T3, REF allele hSTING (Homo sapiens, UniProt Q86WV6)", "T3 construct": "6xHis-SUMO (with TEV site) (N, cleaved yes); made in house; host or cells: Rosetta2 (DE3) E. coli", "T3 sequence (Q86WV6 140-379)": "as the sequence (Q86WV6 140-379 H232R) above, with R93H counted along it", "experiment": "DSF Tm shift, purified hSTING REF allele (AA140-379)", "type": "binding", "settings": "1 mg/ml STING AA140-379, ligand 1 mM", "procedure": "as §1, §2"}, "4T1 mammary carcinoma [1]": {"system": "4T1 mammary carcinoma", "experiment": "4T1 mammary carcinoma dual-flank model, single intratumoral injection", "type": "in vivo, BALB/c mice", "procedure": "To assess the ability of 2′2′-RR-(3′F-A)(3′F-A) to promote anti-tumor immunity in a murine tumor model, 6-8 week old female BALB/c mice (n=8/group) were implanted in both the left and the right flanks with 4T1 mammary carcinoma cells (2×10^5 cells in 100 μL PBS). Mice were treated with 2′2′-RR-(3′F-A)(3′F-A) at 0.1, 1, 10 and 100 μg in a total volume of 40 μL HBSS and compared to Hank's Balanced Salt Solution (HBSS) vehicle control. Compound was administered when tumors reached a volume of approximately 40-50 mm^3 on day 8 post tumor implantation (indicated by dotted line on the x-axis in tumor growth graphs). The compound was administered by a single […] injection into the center of the tumor (intratumoral, IT) using a 27 gauge needle. Tumors were measured twice weekly."}, "4T1 mammary carcinoma [2]": {"system": "4T1 mammary carcinoma", "experiment": "4T1 mammary carcinoma dual-flank model, combination with anti-PD-1 antibody", "type": "in vivo, BALB/c mice", "procedure": "(§3) To assess the ability of 2′2′-RR-(3′F-A)(3′F-A) to promote anti-tumor immunity in murine tumor models in combination with an antagonistic anti-PD-1 antibody, 6-8 week old female BALB/c mice (n=8/group) were implanted in both the left and the right flanks with 4T1 mammary carcinoma cells (2×10^5 cells in 100 aL PBS, day 0). Mice were treated with vehicle alone or 1 μg 2′2′-RR-(3′F-A)(3′F-A) in a total volume of 40 aL HBSS by IT injection using a 27 gauge needle when tumors reached a volume of approximately 40-50 mm^3 on day 8 post tumor implantation (indicated by dotted line on the x-axis in tumor growth graphs). Mice were given intraperitoneal (IP) injections of 200 μg control IgG or anti-PD-1 (clone RMP1-14, BioXCell) beginning on the day of 2′2′-RR-(3′F-A)(3′F-A) treatment and then continuing twice per week throughout the duration of the experiment. Some mice were given IP injection of 100 μg anti-CD8 (clone 2.43, BioXCell) on study days 6, 8, 10, 14, and 17 to deplete CD8^+ T cells. Tumors were measured twice weekly."}, "4T1 mammary carcinoma [3]": {"system": "4T1 mammary carcinoma", "experiment": "AH1-specific T cells in distal 4T1 tumor (TILs), with or without anti-PD-1", "type": "in vivo, BALB/c mice", "procedure": "as §3, with “Some mice were given IP injection of 100 μg anti-CD8 (clone 2.43, BioXCell) on study days 6, 8, 10, 14, and 17 to deplete CD8^+ T cells.” left out\nTo directly quantify the effect of combining 2′2′-RR-(3′F-A)(3′F-A) with anti-PD-1 on tumor-specific T cells, a cohort of mice from Example 9 were euthanized on day 7 post IT injection and non-injected tumors dissociated into a single cell suspension. […] Data were acquired using a LSRFortessa X-20 cytometer with FACSDiva software (BD) and analyzed with FlowJo software (Tree Star)."}, "[4]": {"settings": "1 μg IT combined with anti-PD-1 antibody 200 μg IP twice per week"}}, "data": [{"molecule": "Nc1ncnc2c1ncn2[C@@H]1O[C@@H]2CO[P@@](=O)(S)O[C@@H]3[C@H](F)[C@@H](CO[P@@](=O)(S)O[C@@H]1[C@@H]2F)O[C@H]3n1cnc2c(N)ncnc21", "note": "[2′2′-RR-(3′F-A)(3′F-A), (1S,3R,6R,8R,9S,11R,14R,16R,17R,18R)-8,16-bis(6-amino-9H-purin-9-yl)-17,18-difluoro-3,11-dimercapto-2,4,7,10,12,15-hexaoxa-3,11-diphosphatricyclo[12.2.1.1^6,9]octadecane 3,11-dioxide]", "values": [{"measurement": "hSTING Tm Shift WT", "setting": "wild type hSTING", "value": 13.9, "unit": "°C"}, {"measurement": "hSTING Tm Shift HAQ", "setting": "HAQ allele hSTING", "value": 19.7, "unit": "°C"}, {"measurement": "hSTING Tm Shift REF", "setting": "REF allele hSTING", "value": 12.5, "unit": "°C"}, {"measurement": "cures of the distal tumor", "setting": "4T1 mammary carcinoma [1]; 10 μg single IT dose, n=8", "value": 37.5, "unit": "%"}, {"measurement": "cures of the primary tumor", "setting": "4T1 mammary carcinoma [1]; 10 μg single IT dose, n=8", "value": 100, "unit": "%"}, {"measurement": "tumor inhibition in primary (injected) and distal (non-injected) flank tumor", "setting": "4T1 mammary carcinoma [1]; single IT injection 0.1, 1, 10, 100 μg, compared to HBSS", "value": "potent dose-dependent tumor inhibition"}, {"measurement": "cures, injected tumor", "setting": "4T1 mammary carcinoma [2]; 1 μg IT + control IgG", "value": 25, "unit": "%"}, {"measurement": "cures, non-injected tumor", "setting": "4T1 mammary carcinoma [2]; 1 μg IT + control IgG", "value": 0, "unit": "%"}, {"measurement": "cures, distal (non-injected) tumor", "setting": "4T1 mammary carcinoma [2]; [4]", "value": 62.5, "unit": "%"}, {"measurement": "cures, primary (injected) tumor", "setting": "4T1 mammary carcinoma [2]; [4]", "value": 87.5, "unit": "%"}, {"measurement": "tumor-specific T cell response in distal tumor", "setting": "4T1 mammary carcinoma [3]; 1 μg IT alone, TILs day 7 post IT injection", "value": "measurable above background"}, {"measurement": "polyfunctional IFNγ+TNFα+ CD8 T cells specific for the AH1 peptide in the tumor microenvironment", "setting": "4T1 mammary carcinoma [3]; 1 μg IT combined with anti-PD-1, TILs of non-injected tumor, day 7 post IT injection", "value": "statistically significant increase"}]}]}
